In general, koff refers to the rate constant with which the complex falls apart. A lower koff goes with slow dissociation.

Like-named read-outs stand apart in the source and are kept apart here.

The nature of the assay: real-time WGM (SRSN) resonator measurement of the streptavidin-biotin interaction, Langmuir model analysis. The note with it: for association rate: fit of Equation 7. Type of assay: binding. An excerpt:
An interaction between streptavidin and biotin may be measured. […] Prior to experiments, the SRSN resonator may be pre-processed using biotin. When streptavidin of a DPBS flows into a fluid channel, streptavidin starts to attach biotin on a surface of the optical active resonator. Streptavidin that has closely attached biotin on the surface of the resonator may increase the length of an optical path of a resonance mode. Accordingly, a resonance movement may occur because the resonance state of the optical active resonator is changed.
A beam of a 457.9 nm wavelength argon laser 730 may be concentrated on the top of an SRSN resonator 710 through the PDMS wall of a micro microfluidic channel 720. The laser intensity of a focal plane is 20 W/cm^2 and may obtain strong PL emission including a characteristic cavity mode profile by stimulating silicon nano-clusters. The PL emission is collected through the side wall of the microfluidic channel 720 by an objective lens 750 (numerical aperture: 0.15). In this case, a transverse magnetic (TM) polarization component may be selectively captured by a polarity bond. […] The TM mode may be selectively measured as a cavity TM mode because the TM mode has a slot structure and can be firmly fixed compared to a TE mode. In this case, a beam splitter 740 may be configured between the argon laser 730 and the objective lens 750 and between the objective lens 750 and a CCD camera 760. A separate objective lens, a polarizer 770 and the spectrometer 780 may be configured for measurement.
The PL spectrum is measured after the state of a frequency movement is a saturation state.
In order to additionally research the developed detection device and to analyze the influence of the nano-slot structure on molecule dynamics, a time-excessive operation of a frequency movement caused by an interaction was measured. […] Such a time shift of the frequency movement may be understood based on the Langmuir model. This is commonly used to analyze the kinetics of a surface bonding reaction in a system in which a ligand has been fixed to a firm surface. A fraction proportional to a bio sensor signal may be defined as the number of ligands and analysis complexes based on the Langmuir model, and may be divided by a total number of ligands represent in the following equation in a connection step.
[formula] in the saturation state. In FIG. 10A, a solid line indicates a suitable curve of Equation 7 for measured data points. In this curve, values of kon^obs and fbeq(c) can be obtained. Kd, kon and koff can be derived by substituting the two values with Equation 8 and Equation 9 and solving both the equations at the same time.

Substance Bovine Serum Albumin [BSA] registered a frequency movement (1 mg/mL, flowed 35 minutes over the biotin-processed resonator, control experiment) of 0.25 nm.

For streptavidin, under “streptavidin 144 nM, saturation state (FIG. 9B)”, the peak shift was determined as 1.72 nm. In addition, the association rate was determined as 12000 M⁻¹ s⁻¹ (streptavidin concentration 9 nM in DPBS), 4200 M⁻¹ s⁻¹ (streptavidin concentration 36 nM in DPBS), 3200 M⁻¹ s⁻¹ (streptavidin concentration 54 nM in DPBS) and 6400 M⁻¹ s⁻¹ (streptavidin concentration 90 nM in DPBS). Moreover, the “connection ratio / association rate” value (streptavidin-biotin complex, real-time bonding, Langmuir model) worked out at 0.0003 M⁻¹ s⁻¹. Besides, the koff (streptavidin-biotin complex, saturation state (FIG. 10B)) worked out at 0.014 s⁻¹. The Kd by setting is: (streptavidin-biotin complex, saturation state, Hill model fit (FIG. 10B), read-out: Kd) 380 nM; (streptavidin-biotin complex, read-out: separation constant) 380 nM.

These data come from patent US11733161B2, “Method of determining concentration of subject based on fraction bound measurement” (Korea Advanced Institute of Science and Technology, priority 2019, dated 2023).
